Structures can show the parent of a compound that is named as a salt. Where two headings read alike, the source gives them in different places.
Molecular target: T1, Full length human TNNI3K (hTNNI3K) (Homo sapiens, UniProt Q59H18)
T1 construct: His-MBP-TEV-Full length human TNNI3K (hTNNI3K); His (N); MBP (N); TEV cleavage site (N); made in house; host or cells: baculovirus expression system (printed 'Baculokinase system')
T1 sequence (Q59H18 1-835): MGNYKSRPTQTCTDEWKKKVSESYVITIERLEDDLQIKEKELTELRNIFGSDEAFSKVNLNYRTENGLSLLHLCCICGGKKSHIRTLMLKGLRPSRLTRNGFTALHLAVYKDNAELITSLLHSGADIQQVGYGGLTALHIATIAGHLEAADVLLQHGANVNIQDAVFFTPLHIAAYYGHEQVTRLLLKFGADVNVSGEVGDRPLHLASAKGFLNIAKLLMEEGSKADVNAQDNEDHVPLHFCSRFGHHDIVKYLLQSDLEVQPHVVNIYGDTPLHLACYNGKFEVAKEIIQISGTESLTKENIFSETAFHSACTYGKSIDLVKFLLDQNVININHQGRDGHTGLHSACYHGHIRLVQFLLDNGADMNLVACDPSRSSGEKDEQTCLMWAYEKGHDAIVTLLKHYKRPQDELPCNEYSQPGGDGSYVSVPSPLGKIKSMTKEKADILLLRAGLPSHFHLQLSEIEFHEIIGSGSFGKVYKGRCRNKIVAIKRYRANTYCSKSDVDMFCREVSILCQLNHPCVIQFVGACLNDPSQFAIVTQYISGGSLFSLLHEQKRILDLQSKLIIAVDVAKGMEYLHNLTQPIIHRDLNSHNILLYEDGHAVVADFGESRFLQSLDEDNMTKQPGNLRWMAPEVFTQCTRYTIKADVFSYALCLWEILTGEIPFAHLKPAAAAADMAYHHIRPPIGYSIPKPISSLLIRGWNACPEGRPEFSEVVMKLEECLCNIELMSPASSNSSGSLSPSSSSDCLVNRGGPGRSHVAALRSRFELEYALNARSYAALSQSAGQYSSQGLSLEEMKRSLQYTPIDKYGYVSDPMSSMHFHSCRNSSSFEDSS
Assay: Fluorescent polarization assay of compound inhibition on hTNNI3K ATP binding (Biological Assay Method I)
From the text: Materials: His-MBP-TEV-Full length human TNNI3K (hTNNI3K) was expressed in Baculokinase system and purified from amylase affinity column followed by Superdex200. […] The preparation of this fluorescent ligand is disclosed in U.S. Provisional Patent Application No. 61/237,815 filed Aug. 28, 2009, the disclosure of which is incorporated by reference herein. The other buffer components, including MgCl2 (Catalog Number M1028), Bis-Tris (Catalog Number B7535), DTT (Catalog Number D9779) and Chaps (Catalog Number C3023) were purchased from Sigma-Aldrich.
A fluorescent polarization assay was used to determine does response of compound inhibition on hTNNI3K ATP binding. […]
Fifty (50) nL of inhibitors in DMSO (or DMSO controls) were stamped into a 384-well low volume Greiner black plate, followed by addition of 5 μL of Solution 1 to column 18 and 5 μL Solution 2 to columns 1-17 and 19-24 of the plate. […] After that, the fluorescent polarization was measured on Analyst (ex/em: 485/530 nm, Dichroic: 505). […]

Row | IC50 (mean of a minimum of 2 experiments, displacement of fluorescent ligand from hTNNI3K ATP binding pocket, 60 min at rt, read-out: pXC50 (the source's name) (converted)) [µM] | Compound | IC50 [µM]
1 |  | CNS(=O)(=O)c1cccc(Nc2cc(Nc3ccccc3)ncn2)c1 [Example 55, N-methyl-3-{[6-(phenylamino)-4-pyrimidinyl]amino}benzenesulfonamide trifluoroacetate] | ~0.1
2 | ~0.1 | CNS(=O)(=O)c1cccc(Nc2cc(Nc3nc(C)co3)ncn2)c1 [Example 284, N-methyl-3-({6-[(4-methyl-1,3-oxazol-2-yl)amino]-4-pyrimidinyl}amino)benzenesulfonamide] | 

Reference: US20120329784A1, “COMPOUNDS AND METHODS” (priority 2010, published 2012)
